Reference: patent US20090263341A1, “SOFT ANTICHOLINERGIC ESTERS” (priority 2005, published 2009)
Structures can show the parent of a compound that is named as a salt. Where two headings read alike, the source gives them in different places.

How the values were obtained:
[1] = biological target: T1, cloned human muscarinic receptor subtype M2 (Homo sapiens, UniProt P08172); assay: Receptor binding, [3H]NMS, cloned human muscarinic receptor M2
T1 sequence (P08172 1-466): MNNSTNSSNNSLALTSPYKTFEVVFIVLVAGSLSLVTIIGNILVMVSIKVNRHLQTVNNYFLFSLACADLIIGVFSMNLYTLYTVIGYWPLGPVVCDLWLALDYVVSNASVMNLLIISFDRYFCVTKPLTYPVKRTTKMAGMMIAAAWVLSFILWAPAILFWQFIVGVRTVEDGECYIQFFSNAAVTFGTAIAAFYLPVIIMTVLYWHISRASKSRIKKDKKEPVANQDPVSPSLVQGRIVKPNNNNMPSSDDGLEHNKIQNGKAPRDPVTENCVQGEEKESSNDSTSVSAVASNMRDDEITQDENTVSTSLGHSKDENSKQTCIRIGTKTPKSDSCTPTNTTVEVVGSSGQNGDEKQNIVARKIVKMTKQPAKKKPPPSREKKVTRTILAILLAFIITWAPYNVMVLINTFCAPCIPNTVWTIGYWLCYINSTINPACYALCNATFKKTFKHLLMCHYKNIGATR

[2] = test system: electrically stimulated guinea pig tracheal strips; assay: Time course of anticholinergic effect in electrically stimulated guinea pig trachea
[3] = test system: guinea pig ileum longitudinal muscle strips; assay: Guinea pig ileum longitudinal muscle assay, pA2 against acetylcholine (Schild plot)
[4] = biological target: muscarinic receptors (mainly M1) of rat brain cortex membranes (Rattus norvegicus, UniProt P08482); assay type: binding
[5] = test system: guinea pig tracheal rings; assay: Guinea pig trachea assay, pA2 against carbachol (Schild plot)
Experimental: Changes in isometric tension were measured by a force displacement transducer (Experimetria, Budapest, Hungary) coupled to a Watanabe recorder. Cumulative concentration-effect curves were constructed to carbachol in the absence or presence of the antagonists. In each animal two preparations were used as time control (i.e., repeated carbachol curves in the absence of any antagonist) the remaining two preparations were used to test responses in the presence of two different concentrations of the antagonist.
Antagonists were added to the organ bath 30 min prior to commencement of the agonist concentration versus effect curves. Schild plots were constructed for the antagonists against carbachol and pA2 values as well as slope estimates were obtained.
Responses were measured as changes in isometric tension and calculated as a percentage of the maximum response attained in the initial concentration-response curve. Determination of antagonist potencies was done by constructing Schild double logarithmic plot of log (DR-1) versus −log M concentrations of the antagonist, and the slope of the plot was computed. […] Statistical significance was assessed by ANOVA followed by Dunnett test.

[6] = test system: acetylcholine-induced bronchoconstriction; conditions: guinea pig, in vivo
[7] = biological target: T2, cloned human muscarinic receptor subtype M3 (Homo sapiens, UniProt P20309); assay: Receptor binding, [3H]NMS, cloned human muscarinic receptor M3
T2 construct: purchased Applied Cell Science Inc. (Rockville, Md.)

[8] = test system: guinea pig ileum (M3 muscarinic receptors)
[9] = biological target: T3, cloned human muscarinic receptor subtype M4 (Homo sapiens, UniProt P08173); assay: Receptor binding, [3H]NMS, cloned human muscarinic receptor M4
T3 construct: purchased Applied Cell Science Inc. (Rockville, Md.)
T3 sequence (P08173 1-479): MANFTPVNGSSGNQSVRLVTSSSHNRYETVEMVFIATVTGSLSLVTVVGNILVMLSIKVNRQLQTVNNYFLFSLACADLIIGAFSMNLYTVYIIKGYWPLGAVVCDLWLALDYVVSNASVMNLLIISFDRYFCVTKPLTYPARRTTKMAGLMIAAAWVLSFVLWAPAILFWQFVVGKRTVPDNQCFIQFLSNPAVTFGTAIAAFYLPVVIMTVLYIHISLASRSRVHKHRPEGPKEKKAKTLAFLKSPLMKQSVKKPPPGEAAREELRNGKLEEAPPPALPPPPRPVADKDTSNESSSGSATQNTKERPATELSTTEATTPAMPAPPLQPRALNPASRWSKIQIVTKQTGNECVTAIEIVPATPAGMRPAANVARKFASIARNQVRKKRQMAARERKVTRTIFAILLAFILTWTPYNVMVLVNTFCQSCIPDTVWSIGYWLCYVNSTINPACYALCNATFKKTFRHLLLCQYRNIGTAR

[10] = biological target: T4, cloned human muscarinic receptor subtype M1 (Homo sapiens, UniProt P11229); assay: Receptor binding, [3H]NMS, cloned human muscarinic receptor M1
T4 sequence (P11229 1-460): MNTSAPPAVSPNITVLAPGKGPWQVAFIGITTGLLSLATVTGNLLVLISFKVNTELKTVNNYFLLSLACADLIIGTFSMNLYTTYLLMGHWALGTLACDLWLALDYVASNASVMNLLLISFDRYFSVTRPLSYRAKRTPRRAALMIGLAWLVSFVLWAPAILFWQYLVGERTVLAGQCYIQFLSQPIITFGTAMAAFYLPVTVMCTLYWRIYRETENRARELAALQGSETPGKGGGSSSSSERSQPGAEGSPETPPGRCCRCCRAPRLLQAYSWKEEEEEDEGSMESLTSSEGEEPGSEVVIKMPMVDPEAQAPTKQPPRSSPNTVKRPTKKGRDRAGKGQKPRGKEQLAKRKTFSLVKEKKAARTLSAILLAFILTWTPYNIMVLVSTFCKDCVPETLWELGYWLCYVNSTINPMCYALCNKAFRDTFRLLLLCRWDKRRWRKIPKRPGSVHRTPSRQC

[11] = biological target: cloned human muscarinic receptor subtypes M1-M4; assay: Receptor binding at cloned human muscarinic receptors, values stated across subtypes (ranges, M3/M2 selectivity)
[12] = time from washout to 20% recovery of cholinergic responses

C[N+]1(C)[C@@H]2C[C@@H](OC(=O)[C@H](CO)c3ccccc3)C[C@H]1[C@@H]1O[C@@H]12 [scopolamine methyl bromide, scopolamine methylbromide, reference compound]
Hill slope, M2 [1]: (1.02 ± 0.02)

C[N+]1(CC(=O)O)[C@@H]2C[C@@H](OC(=O)C(O)(c3cccs3)c3cccs3)C[C@H]1[C@@H]1O[C@@H]12 (stereo partly drawn) [Compound (aa), 6β,7β-epoxy-3β-hydroxy-8-carboxymethyl-8-methyl-1αH,5αH-tropanuim, di-2-thienylglycolate inner salt]
t1/5 onset ([2]; onset of inhibition): 0.9 min | t1/5 offset [2, 12]: 27 min

C[N+]1(CC(=O)O)[C@@H]2C[C@@H](OC(=O)C(O)(c3cccs3)c3cccs3)C[C@H]1[C@@H]1O[C@@H]12 (stereo partly drawn) (as salt: salt) [Compound (aa), 6β,7β-epoxy-3β-hydroxy-8-carboxymethyl-8-methyl-1αH,5αH-tropanuim, di-2-thienylglycolate inner salt]
melting point: 158 to 165 °C (dec.)

CCOC(=O)C[N@+]1(C)CC[C@@H](OC(=O)[C@](O)(c2ccccc2)C2CCCC2)C1 [Compound (m), (2R,1′R,3′R) 3-(2-cyclopentyl-2-phenyl-2-hydroxyacetoxy)-1-(ethoxycarbonylmethyl)-1-methylpyrrolidinium bromide]
pA2, Ileum ([3]; tissue samples from four animals): 8.48 | Hill slope ([4]; Table 8): −0.93 ± 0.08 | pA2, Trachea ([5]; against carbachol, tissue from four animals): 8.12 | effect on acetylcholine-induced bronchoconstriction [6]: protective effect

CCOC(=O)C[N@@+]1(C)CC[C@@H](OC(=O)[C@](O)(c2ccccc2)C2CCCC2)C1 [Compound (n), (2R,1′S,3′R) 3-(2-cyclopentyl-2-phenyl-2-hydroxyacetoxy)-1-(ethoxycarbonylmethyl)-1-methylpyrrolidinium bromide]
Hill slope ([4]; Table 8): −1.07 ± 0.02

CCOC(=O)C[N+]1(C)[C@@H]2C[C@@H](OC(=O)C(O)(c3cccs3)c3cccs3)C[C@H]1[C@@H]1O[C@@H]12 (stereo partly drawn) [Compound (w), 6β,7β-epoxy-3,8-hydroxy-8-ethoxycarbonylmethyl-8-methyl-1αH,5αH-tropaniun bromide, di-2-thienylglycolate]
t1/5 onset ([2]; onset of inhibition): 0.6 min | t1/5 offset [2, 12]: 60 min | Hill slope [4]: −1.00 ± 0.04 | Ki [4]: 7.2 ± 0.5 nM | pA2, Trachea [5]: 8.82

CC(C)[N+]1(C)[C@@H]2CC[C@H]1CC(OC(=O)C(CO)c1ccccc1)C2.[Br-] (some centres unmarked) [Ipratropium Br, ipratropium bromide, reference compound]
t1/5 onset [2]: 3.0 min | pA2, Trachea [5]: 9.18

CCOC(=O)C[N+]1(C)[C@@H]2C[C@@H](OC(=O)C(O)(c3cccs3)c3cccs3)C[C@H]1[C@@H]1O[C@@H]12 (stereo partly drawn) (as salt: bromide) [Compound (w), 6β,7β-epoxy-3,8-hydroxy-8-ethoxycarbonylmethyl-8-methyl-1αH,5αH-tropaniun bromide, di-2-thienylglycolate]
melting point: 115 °C

C[N+]1(CC(=O)OCC(Cl)(Cl)Cl)[C@@H]2C[C@@H](OC(=O)C(O)(c3cccs3)c3cccs3)C[C@H]1[C@@H]1O[C@@H]12 (some centres unmarked) (as salt: bromide)
melting point: 105 °C

CN1[C@@H]2CC[C@H]1C[C@@H](OC(=O)C(CO)c1ccccc1)C2 (some centres unmarked) [Atropine, atropine]
pA2, Ileum [3]: 8.52 | t1/5 offset [2]: 10 min | t1/5 onset [2]: 2.5 min

C[N+]1(C)[C@@H]2C[C@@H](OC(=O)C(O)(c3cccs3)c3cccs3)C[C@H]1[C@@H]1O[C@@H]12 [Tiotropium, tiotropium]
t1/5 offset [2]: >360 min | t1/5 onset [2]: 8.0 min

C[N+]1(C)CCC(OC(=O)C(O)(c2ccccc2)C2CCCC2)C1.[Br-] (mixture of isomers) [glycopyrrolate, 3-(2-cyclopentyl-2-phenyl-2-hydroxyacetoxy)-1,1-dimethylpyrrolidinium bromide, reference compound]
pA2, Ileum [3]: 9.66 | pA2, Trachea [5]: 9.43 | Hill slope, M3 [7]: (1.14 ± 0.25) | pA2 [8]: 8.57±0.12 | Hill slope, M2 [1]: (0.99 ± 0.11) | Hill slope, M4 [9]: (1.02 ± 0.01) | effect on acetylcholine-induced bronchoconstriction [6]: protective effect | Hill slope, M1 [10]: (1.37 ± 0.20)

CCOC(=O)C[N+]1(C)CC[C@H](OC(=O)[C@](O)(c2ccccc2)C2CCCC2)C1 (mixture of isomers) [Compound (j), (2R,3′S) 3-(2-cyclopentyl-2-phenyl-2-hydroxyacetoxy)-1-(ethoxycarbonylmethyl)-1-methylpyrrolidinium bromide]
pKi, range over subtypes M1-M4 [11]: 8.2-8.7 | Selectivity M3/M2 (affinity ratio) ([11]; M3/M2 affinity ratio): 2.8±0.8 times | Ki ([7]; mean ± SD of 3 experiments, read-out: receptor binding affinity pKi, M3 (converted)): 2.29 nM | Hill slope, M3 ([7]; numbers in parentheses): (1.33 ± 0.16) | Ki ([1]; mean ± SD of 3 experiments, read-out: receptor binding affinity pKi, M2 (converted)): 6.17 nM | Hill slope, M2 ([1]; numbers in parentheses): (1.27 ± 0.11) | Ki ([9]; mean ± SD of 3 experiments, read-out: receptor binding affinity pKi, M4 (converted)): 1.95 nM | Hill slope, M4 ([9]; numbers in parentheses): (1.15 ± 0.03) | Ki ([10]; mean ± SD of 3 experiments, read-out: receptor binding affinity pKi, M1 (converted)): 2.09 nM | Hill slope, M1 ([10]; numbers in parentheses): (1.21 ± 0.33)
